From ChEMBL document CHEMBL1201862, “PubChem BioAssay data set” (2004)
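A five-concentration, 48-hour dose response in 96-well plates underlies each endpoint, interpolated linearly between surrounding concentrations. Abbreviation: GI50, concentration required for 50% inhibition of growth.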 Active and inactive are the calls of the source. Rule as the data show it: active = GI50 up to about 1.1 µM and inactive = higher.

Tests used:
Assay in all cases: growth of human tumour cells (NCI), 48 h
786-0 = tested on: 786-0
SF-539 = tested on: SF-539
SF-268 = tested on: SF-268
NCI-H23 = tested on: NCI-H23
NCI-H460 = tested on: NCI-H460
HOP-18 = tested on: HOP-18
OVCAR-8 = tested on: OVCAR-8
SNB-78 = tested on: SNB-78
UACC-257 = tested on: UACC-257
K562 = tested on: K562
Malme-3M = tested on: Malme-3M
KM12 = tested on: KM12
NCI-H226 = tested on: NCI-H226
SK-MEL-5 = tested on: SK-MEL-5
RPMI-8226 = tested on: RPMI-8226
NCI-H522 = tested on: NCI-H522
M14 = tested on: M14
XF498 = tested on: XF498
KM-20L2 = tested on: KM-20L2
HOP-62 = tested on: HOP-62
SK-OV-3 = tested on: SK-OV-3
HCT-15 = tested on: HCT-15
LOX IMVI = tested on: LOX IMVI
SN12C = tested on: SN12C
DLD-1 = tested on: DLD-1
M19-MEL = tested on: M19-MEL
LXFL 529 = tested on: LXFL 529
SNB-75 = tested on: SNB-75
HCC 2998 = tested on: HCC 2998
SF-295 = tested on: SF-295
IGROV-1 = tested on: IGROV-1
RXF 393 = tested on: RXF 393
SK-MEL-2 = tested on: SK-MEL-2
OVCAR-5 = tested on: OVCAR-5
HT-29 = tested on: HT-29
OVCAR-4 = tested on: OVCAR-4
HL-60 = tested on: HL-60
MOLT-4 = tested on: MOLT-4
ACHN = tested on: ACHN
RXF 631 = tested on: RXF 631
TK-10 = tested on: TK-10
SW-620 = tested on: SW-620
U-251 = tested on: U-251
COLO 205 = tested on: COLO 205
UACC-62 = tested on: UACC-62
A549 = tested on: A549
SNB-19 = tested on: SNB-19
UO-31 = tested on: UO-31
CAKI-1 = tested on: CAKI-1
HCT-116 = tested on: HCT-116
CCRF-CEM = tested on: CCRF-CEM
A498 = tested on: A498
EKVX = tested on: EKVX
OVCAR-3 = tested on: OVCAR-3
SK-MEL-28 = tested on: SK-MEL-28
SR = tested on: SR
DMS-114 = tested on: DMS-114
HOP-92 = tested on: HOP-92

COC(=O)C(=O)C(C(=O)C(=O)Nc1ccc(C)cc1C)c1nc2ccccc2nc1O (centres undefined)
GI50 (786-0): 77.4 µM (inactive) | GI50 (SF-539): 36.6 µM (inactive) | GI50 (SF-268): 99.1 µM (inactive) | GI50 (NCI-H23): 66.8 µM (inactive) | GI50 (NCI-H460): 85.5 µM (inactive) | GI50 (HOP-18): 36 µM (inactive) | GI50 (OVCAR-8): 37.7 µM (inactive) | GI50 (SNB-78): 41.6 µM (inactive) | GI50 (UACC-257): 58.7 µM (inactive) | GI50 (K562): 42.5 µM (inactive) | GI50 (Malme-3M): 57.4 µM (inactive) | GI50 (KM12): 64.3 µM (inactive) | GI50 (NCI-H226): 37.4 µM (inactive) | GI50 (SK-MEL-5): 58.1 µM (inactive) | GI50 (RPMI-8226): 35 µM (inactive) | GI50 (NCI-H522): 25 µM (inactive) | GI50 (M14): 54.8 µM (inactive) | GI50 (XF498): 58.3 µM (inactive) | GI50 (KM-20L2): > 100 µM (inactive) | GI50 (HOP-62): 39.4 µM (inactive) | GI50 (SK-OV-3): 40.1 µM (inactive) | GI50 (HCT-15): 31.6 µM | GI50 (LOX IMVI): 47 µM (inactive) | GI50 (SN12C): 41.6 µM (inactive) | GI50 (DLD-1): 50.7 µM (inactive) | GI50 (M19-MEL): > 100 µM (inactive) | GI50 (LXFL 529): 43.9 µM (inactive) | GI50 (SNB-75): 15 µM (inactive) | GI50 (HCC 2998): 67.3 µM (inactive) | GI50 (SF-295): > 100 µM (inactive) | GI50 (IGROV-1): 32.5 µM (inactive) | GI50 (RXF 393): 17.8 µM (inactive) | GI50 (SK-MEL-2): 54.3 µM (inactive) | GI50 (OVCAR-5): 30.9 µM (inactive) | GI50 (HT-29): > 100 µM (inactive) | GI50 (OVCAR-4): > 100 µM (inactive) | GI50 (HL-60): 41.8 µM (inactive) | GI50 (MOLT-4): 32.4 µM (inactive) | GI50 (ACHN): 50 µM (inactive) | GI50 (RXF 631): 46.7 µM (inactive) | GI50 (TK-10): 22.1 µM (inactive) | GI50 (SW-620): > 100 µM (inactive) | GI50 (U-251): 57.1 µM (inactive) | GI50 (COLO 205): 79.3 µM (inactive) | GI50 (UACC-62): 37.1 µM (inactive) | GI50 (A549): 31.7 µM (inactive) | GI50 (SNB-19): > 100 µM (inactive) | GI50 (UO-31): 30.9 µM (inactive) | GI50 (CAKI-1): 21.3 µM (inactive) | GI50 (HCT-116): 63 µM (inactive) | GI50 (CCRF-CEM): 4.99 µM (inactive) | GI50 (A498): 19.5 µM (inactive) | GI50 (EKVX): 17.9 µM (inactive) | GI50 (OVCAR-3): 32.7 µM (inactive) | GI50 (SK-MEL-28): 51.9 µM (inactive) | GI50 (SR): 35.8 µM (inactive)

CC(C)=CCc1c(O)cc(O)c2c1OC(c1ccc(O)cc1)C(O)C2=O (centres undefined)
GI50 (DMS-114): 39.4 µM (inactive) | GI50 (SF-539): 18.4 µM (inactive) | GI50 (SF-268): 32.1 µM (inactive) | GI50 (NCI-H23): 18.2 µM (inactive) | GI50 (NCI-H460): 27.6 µM (inactive) | GI50 (HOP-18): 17.8 µM (inactive) | GI50 (OVCAR-8): 31.8 µM (inactive) | GI50 (SNB-78): 24.3 µM (inactive) | GI50 (UACC-257): 36.2 µM (inactive) | GI50 (K562): 20.2 µM (inactive) | GI50 (Malme-3M): 25.5 µM (inactive) | GI50 (KM12): 26.5 µM (inactive) | GI50 (NCI-H226): 21.9 µM (inactive) | GI50 (SK-MEL-5): 22.3 µM (inactive) | GI50 (NCI-H522): 18.9 µM (inactive) | GI50 (M14): 22.6 µM (inactive) | GI50 (XF498): 30.2 µM (inactive) | GI50 (KM-20L2): 18.1 µM (inactive) | GI50 (HOP-62): 19.3 µM (inactive) | GI50 (HOP-92): 18.3 µM (inactive) | GI50 (SK-OV-3): 38.4 µM (inactive) | GI50 (HCT-15): 21.7 µM | GI50 (LOX IMVI): 18.7 µM (inactive) | GI50 (SN12C): 27.7 µM (inactive) | GI50 (DLD-1): 30.2 µM (inactive) | GI50 (M19-MEL): 35.7 µM (inactive) | GI50 (LXFL 529): 28.8 µM (inactive) | GI50 (SNB-75): 26.8 µM (inactive) | GI50 (HCC 2998): 23.1 µM (inactive) | GI50 (SF-295): 27.5 µM (inactive) | GI50 (IGROV-1): 32 µM (inactive) | GI50 (RXF 393): 20.3 µM (inactive) | GI50 (SK-MEL-2): 23.6 µM (inactive) | GI50 (OVCAR-5): 28.2 µM (inactive) | GI50 (HT-29): 20.9 µM (inactive) | GI50 (OVCAR-4): 30.5 µM (inactive) | GI50 (MOLT-4): > 10 µM (inactive) | GI50 (ACHN): 25.5 µM (inactive) | GI50 (RXF 631): 31.8 µM (inactive) | GI50 (TK-10): 24.9 µM (inactive) | GI50 (SW-620): 36.4 µM (inactive) | GI50 (U-251): 25.2 µM (inactive) | GI50 (COLO 205): 31 µM (inactive) | GI50 (UACC-62): 21.4 µM (inactive) | GI50 (A549): 26.1 µM (inactive) | GI50 (SNB-19): 37.2 µM (inactive) | GI50 (UO-31): 40 µM (inactive) | GI50 (HCT-116): 32.4 µM (inactive) | GI50 (CCRF-CEM): > 10 µM (inactive) | GI50 (A498): 42.2 µM (inactive) | GI50 (EKVX): 25.6 µM (inactive) | GI50 (OVCAR-3): 19.2 µM (inactive) | GI50 (SK-MEL-28): 23.3 µM (inactive)
